The results in this text go back to patent publication US11786584B2, “Peptides and combination of peptides for use in immunotherapy against prostate cancer and other cancers” (Immatics Biotechnologies GmbH, priority 2015, dated 2023).

In assay [1] the test system is CD8+ T cells. Put plainly: In vitro T-cell priming assay with aAPCs loaded with peptide/MHC and anti-CD28, multimer readout. Type of assay: cell-based, human. The following applies: in vitro immunogenicity, Table 15B. The source says:
In order to obtain information regarding the immunogenicity of the TUMAPs of the present invention, the inventors performed investigations using an in vitro T-cell priming assay based on repeated stimulations of CD8+ T cells with artificial antigen presenting cells (aAPCs) loaded with peptide/MHC complexes and anti-CD28 antibody.
In order to perform in vitro stimulations by artificial antigen presenting cells loaded with peptide-MHC complex (pMHC) and anti-CD28 antibody, the inventors first isolated CD8+ T cells from fresh HLA-A*02 leukapheresis products via positive selection using CD8 microbeads (Miltenyi Biotec, Bergisch-Gladbach, Germany) of healthy donors obtained from the University clinics Mannheim, Germany, after informed consent.
PBMCs and isolated CD8+ lymphocytes were incubated in T-cell medium (TCM) until use consisting of RPMI-Glutamax (Invitrogen, Karlsruhe, Germany) supplemented with 10% heat inactivated human AB serum (PAN-Biotech, Aidenbach, Germany), 100 U/ml Penicillin/100 μg/ml Streptomycin (Cambrex, Cologne, Germany), 1 mM sodium pyruvate (CC Pro, Oberdorla, Germany), 20 μg/ml Gentamycin (Cambrex). 2.5 ng/ml IL7 (PromoCell, Heidelberg, Germany) and 10 U/ml IL-2 (Novartis Pharma, Nurnberg, Germany) were also added to the TCM at this step.
Generation of pMHC/anti-CD28 coated beads, T-cell stimulations and readout was performed in a highly defined in vitro system using four different pMHC molecules per stimulation condition and 8 different pMHC molecules per readout condition.
The purified co-stimulatory mouse IgG2a anti human CD28 Ab 9.3 (Jung et al., 1987) was chemically biotinylated using Sulfo-N-hydroxysuccinimidobiotin as recommended by the manufacturer (Perbio, Bonn, Germany). Beads used were 5.6 μm diameter streptavidin coated polystyrene particles (Bangs Laboratories, Illinois, USA).
800.000 beads/200 μl were coated in 96-well plates in the presence of 4×12.5 ng different biotin-pMHC, washed and 600 ng biotin anti-CD28 were added subsequently in a volume of 200 μl. Stimulations were initiated in 96-well plates by co-incubating […] CD8+ T cells with 2×10^5 washed coated beads in 200 μl TCM supplemented with 5 ng/ml IL-12 (PromoCell) for 3 days at 37° C. Half of the medium was then exchanged by fresh TCM supplemented with 80 U/ml IL-2 and incubating was continued for 4 days at 37° C. This stimulation cycle was performed for a total of three times. For the pMHC multimer readout using 8 different pMHC molecules per condition, a two-dimensional combinatorial coding approach was used as previously described (Andersen et al., 2012) with minor modifications encompassing coupling to 5 different fluorochromes. Finally, multimeric analyses were performed by staining the cells with Live/dead near IR dye (Invitrogen, Karlsruhe, Germany), CD8-FITC antibody clone SK1 (BD, Heidelberg, Germany) and fluorescent pMHC multimers. For analysis, a BD LSRII SORP cytometer equipped with appropriate lasers and filters was used. Peptide specific cells were calculated as percentage of total CD8+ cells. Evaluation of multimeric analysis was done using the FlowJo software (Tree Star, Oregon, USA). In vitro priming of specific multimer+ CD8+ lymphocytes was detected by comparing to negative control stimulations.

Assay [2] concerns the target HLA-A*02 (Homo sapiens, UniProt P04439, D140Y/D185E/D98H/E176V/E277Q/G131W/G231S/I119V/I121R/I166T/I218V/L300P/N151K/N90K/P208A/P217A/Q86G/Q94H/R138H/R169H). Put plainly: MHC binding assay by UV-ligand exchange and beta2m ELISA. The following applies: peptide exchange yield. The source says: Candidate peptides for T cell based therapies according to the present invention were further tested for their MHC binding capacity (affinity). The individual peptide-MHC complexes were produced by UV-ligand exchange, where a UV-sensitive peptide is cleaved upon UV-irradiation, and exchanged with the peptide of interest as analyzed. Only peptide candidates that can effectively bind and stabilize the peptide-receptive MHC molecules prevent dissociation of the MHC complexes. To determine the yield of the exchange reaction, an ELISA was performed based on the detection of the light chain (β2m) of stabilized MHC complexes. The assay was performed as generally described in Rodenko et al. (Rodenko et al., 2006).
96 well MAXISorp plates (NUNC) were coated over night with 2 ug/ml streptavidin in PBS at room temperature, washed 4× and blocked for 1 h at 37° C. in 2% BSA containing blocking buffer. Refolded HLA-A*02:01/MLA-001 monomers served as standards, covering the range of 15-500 ng/ml. Peptide-MHC monomers of the UV-exchange reaction were diluted 100 fold in blocking buffer. Samples were incubated for 1 h at 37° C., washed four times, incubated with 2 ug/ml HRP conjugated anti-β2m for 1 h at 37° C., washed again and detected with TMB solution that is stopped with […]. Absorption was measured at 450 nm. Candidate peptides that show a high exchange yield (preferably higher than 50%, most preferred higher than 75%) are generally preferred for a generation and production of antibodies or fragments thereof, and/or T cell receptors or fragments thereof, as they show sufficient avidity to the MHC molecules and prevent dissociation of the MHC complexes.

Take “6 (ALLESRVNL; listed as Homo sapiens) [compound 6]”: the “Wells positive [%]” value in assay [1] is on record as “+ (<20% = +)”. For the same substance, the Peptide exchange result in assay [2] was “++++ (>75% = ++++)”.
